Data taken from patent US20240208953A1, “"Cyclopenta[c]pyrrol Negative Allosteric Modulators of NR2B"” (Novartis AG, priority 2021, published 2024).

Target: NR2B (Rattus norvegicus (Rat), UniProt Q00960)
Test: NR2B rat cortical neuron calcium influx assay
Assay type: cell-based
Details: rat cortical neurons, glutamate and glycine stimulated calcium influx
Description: Example 1: NR2B Rat Cortical Neuron Calcium Influx Assay Protocol
Embryonic day 18 timed pregnant Sprague Dawley rats were euthanized according to Institutional Animal Care and Use Committee (IACUC) protocol. After cutting medially through the skin and exposing the uterus and embryos, fetuses were removed and placed in cold Hibernate medium. Each embryo's brain was extracted and cerebral cortices were isolated by removing the midbrain and meninges. The dissected cortices were then dissociated into the neurons using papain dissociation system (Worthington Biochemical Corporation) according the manufacturer's protocol.
Dissociated neurons were counted and plated into 384-well poly-D-lysine coated plates (Corning® BioCoat™) at a density of 20,000 cells/well in 30 μL of Neurobasal/B27 complete medium. Neurons were cultured at 37° C. for 2 days. On the assay day, medium was removed and cells were incubated with 20 μL/well of calcium dye (Calcium 6 Assay Kit, Molecular Devices) suspended in HBSS with 1.8 mM Ca^2+ (Ca-HBSS) according to the manufacturer's instruction.
Compounds of interest from 10 mM stock were serially diluted into 3× of desired concentrations in 1.8 mM Ca-HBSS, and 10 μL were added to the wells. Compound and the neurons were incubated at 37° C. for 2 hours in the dark.
On FDSS7000EX (Hamamatsu Photonics), a fluorescence measuring instrument, 10 μL of 4× ligand solution containing glutamate and glycine made in 1.8 mM Ca^2+-HBSS were added to each well. The fluorescent signals were collected before and after the addition of ligands for a total of 2 minutes. The data were converted to a ratio of the peak fluorescence to the fluorescence at the beginning of the measurement.
Each data point was measured in duplicates. Dose response curves were used to identify IC50 and maximal inhibition values. IC50 represents the concentration in μM of compound at which there is a half-maximal compound effect. Maximal inhibition of a compound is expressed as a percent of the highest inhibition of activity over a no compound control.

NR2B, sequence (Q00960 27-1482, other chains not shown): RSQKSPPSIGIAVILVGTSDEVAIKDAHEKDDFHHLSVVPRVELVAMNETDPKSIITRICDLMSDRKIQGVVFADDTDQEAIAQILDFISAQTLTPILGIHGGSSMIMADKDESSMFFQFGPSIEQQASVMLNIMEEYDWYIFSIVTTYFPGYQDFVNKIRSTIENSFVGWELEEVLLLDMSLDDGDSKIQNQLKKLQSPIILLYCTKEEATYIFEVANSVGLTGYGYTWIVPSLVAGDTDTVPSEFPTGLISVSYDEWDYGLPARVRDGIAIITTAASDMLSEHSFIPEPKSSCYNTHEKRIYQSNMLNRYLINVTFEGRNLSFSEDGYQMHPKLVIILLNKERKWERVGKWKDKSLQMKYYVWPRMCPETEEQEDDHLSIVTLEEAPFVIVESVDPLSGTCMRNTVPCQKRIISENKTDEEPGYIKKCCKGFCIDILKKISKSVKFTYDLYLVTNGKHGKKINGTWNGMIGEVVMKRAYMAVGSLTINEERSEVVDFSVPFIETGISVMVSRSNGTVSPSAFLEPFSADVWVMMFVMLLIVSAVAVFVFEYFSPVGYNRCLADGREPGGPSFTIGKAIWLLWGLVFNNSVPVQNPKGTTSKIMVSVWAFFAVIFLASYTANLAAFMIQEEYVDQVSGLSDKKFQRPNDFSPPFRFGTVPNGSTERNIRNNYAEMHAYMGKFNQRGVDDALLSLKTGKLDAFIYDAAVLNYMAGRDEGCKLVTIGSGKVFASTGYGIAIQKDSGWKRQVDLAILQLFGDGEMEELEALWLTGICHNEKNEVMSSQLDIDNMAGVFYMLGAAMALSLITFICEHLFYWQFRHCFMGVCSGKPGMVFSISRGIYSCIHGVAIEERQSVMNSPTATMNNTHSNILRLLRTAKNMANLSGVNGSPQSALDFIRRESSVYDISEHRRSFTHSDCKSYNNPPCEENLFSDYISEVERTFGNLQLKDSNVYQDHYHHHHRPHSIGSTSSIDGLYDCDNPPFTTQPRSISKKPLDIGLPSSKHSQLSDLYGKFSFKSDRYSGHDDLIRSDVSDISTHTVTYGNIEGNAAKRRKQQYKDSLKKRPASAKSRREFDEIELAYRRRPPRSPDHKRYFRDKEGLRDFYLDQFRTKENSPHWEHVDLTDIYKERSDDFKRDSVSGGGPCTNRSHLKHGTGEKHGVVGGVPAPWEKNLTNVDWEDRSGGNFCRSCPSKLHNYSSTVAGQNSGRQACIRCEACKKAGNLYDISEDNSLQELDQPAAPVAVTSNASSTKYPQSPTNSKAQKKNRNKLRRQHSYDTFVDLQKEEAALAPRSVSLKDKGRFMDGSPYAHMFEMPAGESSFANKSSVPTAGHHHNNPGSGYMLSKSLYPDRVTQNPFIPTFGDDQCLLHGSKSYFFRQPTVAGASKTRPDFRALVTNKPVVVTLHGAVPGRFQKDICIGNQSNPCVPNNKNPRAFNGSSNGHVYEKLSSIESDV

Row | IC50 | Structure (SMILES)
1 | 57 nM | O=C1COc2cc([C@H](O)CN3C[C@H]4C[C@H](Oc5ccccc5)C[C@@]4(O)C3)cc(F)c2N1 (single isomer, unassigned) [Example 13B]
2 | > 1100 nM | O=C1CCc2cc([C@@H](O)CN3C[C@H]4C[C@H](Oc5ccc(F)cc5F)C[C@@]4(O)C3)ccc2N1 (single isomer, unassigned) [Example 25A]
3 | 6.9 nM | O=c1[nH]c2ccc([C@@H](O)CN3C[C@H]4C[C@H](Oc5ccccc5F)C[C@@]4(O)C3)cc2o1 (single isomer, unassigned) [Example 40A]
4 | 14 nM | O=C1CCc2cc([C@H](O)CN3C[C@H]4C[C@H](Oc5ccc(F)cc5F)C[C@@]4(O)C3)ccc2N1 (single isomer, unassigned) [Example 25B]
5 | 86 nM | O=c1[nH]c2ccc([C@H](O)CN3C[C@H]4C[C@H](Oc5ccccc5)C[C@@]4(O)C3)cc2o1 (single isomer, unassigned) [Example 39B]
6 | 17 nM | O=C1CCCc2cc([C@H](O)CN3C[C@H]4C[C@H](Oc5ccccc5)C[C@@]4(O)C3)cc(F)c2N1 (single isomer, unassigned) [Example 30B]
7 | 33 nM | O=C1CCc2cc([C@@H](O)CN3C[C@H]4C[C@H](Oc5cccc(F)c5)C[C@@]4(O)C3)ccc2N1 (single isomer, unassigned) [Example 23A]
8 | 290 nM | O=C1CCc2cc([C@H](O)CN3C[C@H]4C[C@H](Oc5c(F)cccc5F)C[C@@]4(O)C3)ccc2N1 (single isomer, unassigned) [Example 27B]
9 | 1.2 nM | O=C1CCCc2cc([C@H](O)CN3C[C@H]4C[C@H](Oc5ccccc5F)C[C@@]4(O)C3)ccc2N1 (single isomer, unassigned) [Example 43B]
10 | 420 nM | O=C1CCc2cc([C@H](O)CN3C[C@H]4C[C@H](Oc5ccc(F)cc5)C[C@@]4(O)C3)ccc2N1 (single isomer, unassigned) [Example 22B]
11 | 2 nM | O=c1[nH]c2c(F)cc([C@@H](O)CN3C[C@H]4C[C@H](Oc5ccccc5)C[C@@]4(O)C3)cc2cc1F (single isomer, unassigned) [Example 20A]
12 | > 1100 nM | O=C1CCc2cc([C@@H](O)CN3C[C@H]4C[C@H](Oc5c(F)cccc5F)C[C@@]4(O)C3)ccc2N1 (single isomer, unassigned) [Example 27A]
13 | 23 nM | O=C1CCc2cc([C@@H](O)CN3C[C@H]4C[C@H](Oc5ccc(F)cc5)C[C@@]4(O)C3)ccc2N1 (single isomer, unassigned) [Example 22A]
14 | 26 nM | O=c1[nH]c2ccc([C@@H](O)CN3C[C@H]4C[C@H](Oc5ccccc5)C[C@@]4(O)C3)cc2o1 (single isomer, unassigned) [Example 39A]
15 | 130 nM | O=C1CCc2cc([C@H](O)CN3C[C@H]4C[C@H](Oc5ccccc5F)C[C@@]4(O)C3)ccc2N1 [Example 5B, 6-((S)-2-((3aS,5S,6aR)-5-(2-fluorophenoxy)-3a-hydroxyhexahydrocyclopenta[c]pyrrol-2(1H)-yl)-1-hydroxyethyl)-3,4-dihydroquinolin-2(1H)-one]
16 | 250 nM | O=C1CCc2cc([C@@H](O)CN3C[C@H]4C[C@H](Oc5cc(F)ccc5F)C[C@@]4(O)C3)ccc2N1 (single isomer, unassigned) [Example 26A]

Row | IC50 | Structure (SMILES)
17 | 1.6 nM | O=C1CCc2cc([C@H](O)CN3C[C@@H]4C[C@@H](Oc5ccc(F)cc5)C[C@]4(O)C3)ccc2N1 (single isomer, unassigned) [Example 22D]
18 | 2.6 nM | CC1(C)Cc2cc([C@H](O)CN3C[C@H]4C[C@H](Oc5ccccc5)C[C@@]4(O)C3)ccc2NC1=O (single isomer, unassigned) [Example 11B]
19 | 28 nM | O=c1[nH]c2ccc([C@H](O)CN3C[C@H]4C[C@H](Oc5ccccc5F)C[C@@]4(O)C3)cc2o1 (single isomer, unassigned) [Example 40B]
20 | 7.8 nM | O=C1Nc2c(cc([C@H](O)CN3C[C@H]4C[C@H](Oc5ccccc5)C[C@@]4(O)C3)c(F)c2F)CO1 (single isomer, unassigned) [Example 38B]
21 | 400 nM | O=C1Cc2cc([C@@H](O)CN3C[C@H]4C[C@H](Oc5ccccc5)[C@H](O)[C@@]4(O)C3)ccc2N1 [Example 3C, 5-((R)-2-((3aS,4S,5S,6aR)-3a,4-dihydroxy-5-phenoxyhexahydrocyclopenta[c]pyrrol-2(1H)-yl)-1-hydroxyethyl)indolin-2-one]
22 | 0.25 nM | O=C1Nc2ccc([C@H](O)CN3C[C@H]4C[C@H](Oc5ccccc5F)C[C@@]4(O)C3)cc2CCO1 (single isomer, unassigned) [Example 12B]
23 | 600 nM | O=C1COCc2cc([C@H](O)CN3C[C@H]4C[C@H](Oc5ccccc5)C[C@@]4(O)C3)cc(F)c2N1 (single isomer, unassigned) [Example 32B]
24 | 0.22 nM | O=C1CCc2cc([C@H](O)CN3C[C@@H]4C[C@@H](Oc5ccc(F)cc5F)C[C@]4(O)C3)ccc2N1 (single isomer, unassigned) [Example 25D]
25 | 6.5 nM | O=C1Nc2c(F)cc([C@H](O)CN3C[C@H]4C[C@H](Oc5ccccc5)C[C@@]4(O)C3)c(F)c2CO1 (single isomer, unassigned) [Example 37B]
26 | 1060 nM | O=C1CCc2cc([C@H](O)CN3C[C@H]4C[C@H](Oc5ccccc5F)C[C@@]4(O)C3)cc(F)c2N1 (single isomer, unassigned) [Example 6B]
27 | 280 nM | O=C1CCc2cc([C@H](O)CN3C[C@H]4C[C@H](Oc5cccc(F)c5)C[C@@]4(O)C3)ccc2N1 (single isomer, unassigned) [Example 23B]
28 | 16 nM | O=C1CCc2cc([C@@H](O)CN3C[C@H]4C[C@H](Oc5cccc(F)c5F)C[C@@]4(O)C3)ccc2N1 (single isomer, unassigned) [Example 24A]
29 | 470 nM | O=C1CCc2cc([C@H](O)CN3C[C@H]4C[C@H](Oc5cc(F)ccc5F)C[C@@]4(O)C3)ccc2N1 (single isomer, unassigned) [Example 26B]
30 | 75 nM | O=C1Cc2cc([C@H](O)CN3C[C@H]4C[C@H](Oc5ccccc5)[C@H](O)[C@@]4(O)C3)ccc2N1 [Example 3D, 5-((S)-2-((3aS,4S,5S,6aR)-3a,4-dihydroxy-5-phenoxyhexahydrocyclopenta[c]pyrrol-2(1H)-yl)-1-hydroxyethyl)indolin-2-one]
31 | 57 nM | O=C1CCc2cc([C@H](O)CN3C[C@H]4C[C@H](Oc5cccc(F)c5F)C[C@@]4(O)C3)ccc2N1 (single isomer, unassigned) [Example 24B]

Row | Structure (SMILES) | IC50
32 | O=C1Nc2c(F)cc([C@@H](O)CN3C[C@H]4C[C@H](Oc5ccccc5)C[C@@]4(O)C3)cc2C[C@@H]1F [Example 19] | 8.7 nM

Target: P-glycoprotein (P-gp) (Homo sapiens (Human), UniProt P08183)
Sequence (P08183 whole entry): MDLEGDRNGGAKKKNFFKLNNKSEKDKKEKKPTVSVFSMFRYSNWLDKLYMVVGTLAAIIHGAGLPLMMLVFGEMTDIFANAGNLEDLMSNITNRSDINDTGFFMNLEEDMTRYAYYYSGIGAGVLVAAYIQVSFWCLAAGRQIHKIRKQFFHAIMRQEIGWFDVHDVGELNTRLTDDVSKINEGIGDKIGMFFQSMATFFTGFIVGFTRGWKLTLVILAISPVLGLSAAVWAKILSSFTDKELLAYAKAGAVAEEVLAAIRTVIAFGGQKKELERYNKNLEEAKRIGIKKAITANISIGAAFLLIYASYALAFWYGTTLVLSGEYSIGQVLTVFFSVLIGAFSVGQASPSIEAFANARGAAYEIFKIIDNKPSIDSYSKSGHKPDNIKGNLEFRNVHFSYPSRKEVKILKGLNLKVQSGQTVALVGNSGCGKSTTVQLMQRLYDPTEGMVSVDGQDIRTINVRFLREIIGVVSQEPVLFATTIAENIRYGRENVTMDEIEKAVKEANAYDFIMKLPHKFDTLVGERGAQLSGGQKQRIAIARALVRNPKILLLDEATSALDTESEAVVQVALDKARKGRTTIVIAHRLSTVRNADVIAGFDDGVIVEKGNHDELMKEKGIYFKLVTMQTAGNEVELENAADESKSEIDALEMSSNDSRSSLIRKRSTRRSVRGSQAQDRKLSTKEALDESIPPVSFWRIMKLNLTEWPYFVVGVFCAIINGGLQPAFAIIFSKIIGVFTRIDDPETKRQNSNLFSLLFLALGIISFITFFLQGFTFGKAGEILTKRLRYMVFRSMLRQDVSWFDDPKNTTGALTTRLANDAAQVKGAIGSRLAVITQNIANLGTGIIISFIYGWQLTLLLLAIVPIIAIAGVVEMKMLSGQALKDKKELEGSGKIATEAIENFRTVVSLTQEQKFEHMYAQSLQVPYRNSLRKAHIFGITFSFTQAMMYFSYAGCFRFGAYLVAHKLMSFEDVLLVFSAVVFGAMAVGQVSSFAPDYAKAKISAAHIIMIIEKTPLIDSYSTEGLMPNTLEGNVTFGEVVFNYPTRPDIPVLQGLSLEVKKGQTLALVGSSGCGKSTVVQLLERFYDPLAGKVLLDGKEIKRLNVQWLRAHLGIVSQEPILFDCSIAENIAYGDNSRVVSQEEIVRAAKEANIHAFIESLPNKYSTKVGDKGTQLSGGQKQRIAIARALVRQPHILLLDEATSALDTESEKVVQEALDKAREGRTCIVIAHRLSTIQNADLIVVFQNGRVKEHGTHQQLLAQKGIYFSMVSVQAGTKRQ
Test: MDCK-MDR1 permeability / efflux assay
Assay type: in vitro ADME
Details: dog, MDCK-MDR1, pH 7.4, efflux ratio, read-out: MDCK-MDR1 ER
Procedure: Example 4. Experimental Measurement of Efflux with MDCK-MDR1 Protocol
Cell Culture. MDCK-MDR1 cells were cultured at 37° C. under a 5% CO2 atmosphere, at 95% relative humidity in DMEM containing 10% FBS, penicillin-streptomycin (100 μg/mL), and 2 mM Ala-Gln. Cells were passaged every 3-4 days. For assay purposes, cells were seeded at a density of approximately 265,000 cells/cm^2 of a 96-well Transwell plate (Corning Life Sciences, Acton, MA) and cultured in the same media noted above for a period of 4 days.
Assay. The determination of the apparent permeability (Papp) was performed in both the A→B (apical to basal) and B→A (basal to apical) directions where each compound was assayed in triplicate. The zwitterion bestatin, a poorly permeably compound, was used as marker of monolayer integrity. To initiate the assay, media was aspirated, and the cells and basal chambers were washed three times with Hank's Balanced Salt Solution (HBSS) containing 10 mM HEPES (pH 7.4). Compound test solutions were prepared in triplicate in HBSS containing 10 mM HEPES (pH 7.4) and 0.02% bovine serum albumin (BSA) to a final concentration of 10 μM and centrifuged for 2 min at 4000×g, then applied to the donor compartment at time zero. Additionally, at time zero, a 37° C. solution without test articles (HBSS+10 mM HEPES (pH 7.4) plus 0.02% BSA) was added to the receiver chamber of the Transwell plate. A time zero sample of the donor solution was also sampled for further analysis. The assay was conducted for a period of 120 min at 37° C. without shaking. At the time of assay termination, samples were taken from each donor compartment, and each acceptor compartment of the Transwell plate. To each of the 0 and 120 min samples was added an internal standard solution containing glyburide in water:acetonitrile, 50:50 (v:v). Concentration curves were prepared using a Labcyte Echo in the same matrix noted above. Samples and concentration curve samples were centrifuged for 10 min at 4000×g and subsequently analyzed by mass spectroscopy.
Mass Spectroscopy. Assay samples were loaded onto a RapidFire C4 cartridge by means of a RapidFire autosampler (Agilent, Santa Clara, CA). […] Mass spectroscopy was performed using an AB Sciex AP15500 (Sciex, Frammingham, MA) equipped with a turbo ion spray source. The analyte concentration was calculated from the chromatographic peak area ratio of analyte to internal standard (glibenclamide, m/z 494→169), using Multiquant software V3.0 (Sciex, Framingham, MA).
Calculations. Papp values were determined as
Percent recovery values were determined as:
where VA is the volume of the acceptor (mL), S is the surface area of the membrane, D0 is the donor solution concentration at t=0, D120 is the donor solution concentration at t=120, A120 is the acceptor solution concentration at t=120, and t=time (seconds).
The suitability of a compound for oral dosing and/or for use as a CNS therapeutic is usually conducted by MDCK-MDR1 permeability assay to investigate its drug efflux potential mediated by P-glycoprotein (P-gp). MDCK-MDR1 permeability has been used as a predictor of blood brain barrier permeability in terms of efflux ratio (ER).

Row | efflux ratio at 120 min, 10 μM | Structure (SMILES)
33 | 1.11 | O=C1COc2cc([C@H](O)CN3C[C@H]4C[C@H](Oc5ccccc5)C[C@@]4(O)C3)cc(F)c2N1 (single isomer, unassigned) [Example 13B]
